Assay results: patent US11440923B2, “Substituted macrocyclic indole derivatives” (Bayer Aktiengesellschaft, priority 2017, dated 2022)
Counter-ions that a name gives are not always drawn. Like-named read-outs stand apart in the source and are kept apart here.

What was measured:
MCL-1 = MCL-1 (Homo sapiens (Human), UniProt Q07820, K194A/K197A/R201A); test: Protein-protein interaction assay MCL-1/Noxa BH3 peptide (MCL-1 assay, TR-FRET); format: binding; conditions: MCL-1 Assay IC50 (median)
Procedure: The dose-dependent inhibition by the compounds described in this invention of the interaction between MCL-1 and the BH3 domain of Noxa (both human) was determined using a steady state binding competition assay with time-resolved fluorescence energy transfer (TR-FRET) readout. For that purpose MCL-1 (amino acids 173-321, N-terminal fused to Maltose Binding Protein (MBP) SEQ ID 1)) and a synthetic Noxa BH3-derived peptide of sequence Biotin-PEG2-PEG2-PAELEVE-Nva-[…]-amide (SEQ ID 2) served as protein receptor and tracer ligand respectively. The MBP-MCL-1 was purchased from Beryllium (Bedford, Mass., USA). The expression and purification of this protein construct has been described elsewhere (DOI:10.1371/journal.pone.0125010). The Noxa BH3-derived peptide can be obtained from e.g. Biosyntan (Berlin, Germany).
(§1) For that, 100-fold concentrated DMSO solutions were prepared by serial dilutions (1:3.4) of a 2 mM stock solution in a clear, 384-well microtiter plate (Greiner Bio-One, Frickenhausen, Germany). From there, 50 nl were transferred in a dark test plate (Greiner Bio-One, Frickenhausen, Germany). The assay was initiated by addition of 2 μL of a 2,5-fold concentrated MBP-MCL-1 solution (usually for a 1 nM end concentration in 5 μL reaction volume) in aqueous assay buffer [50 mM Tris/HCl pH 7, 100 mM sodium chloride (NaCl), 50 mM potassium fluoride (KF), 0.005% Tween-20, 2 mM DTT, 0.1% bovine gamma globulin (BGG)] to the compounds in the assay plate. This was followed by a 10-minute incubation step at 22° C. for pre-equilibration of the putative complex between MBP-MCL-1 and the compounds.
The mixture was incubated in the dark for one hour at 22° C. and then overnight at 4° C. The formation of MCL-1/Noxa complexes was determined by measuring the resonance energy transfer of the anti-MBP-Eu-cryptate antibody to the streptavidin-XL665 present in the reaction.
(§2) For that purpose, the fluorescence emission at 620 nm and 665 nm after excitation at 330-350 nm was measured in a TR-FRET measuring instrument, for instance a Rubystar or a Pherastar (both from BMG Lab Technologies, Offenburg, Germany) or a Viewlux (Perkin-Elmer). The ratio of the emission at 665 nm and at 622 nm was used as indicator of the amount of MCL-1/NOXA complexes present.
(§3) The resulting data (ratio) were normalized, taking 0% inhibition as the mean value of control measurements (usually 32 data points) where all reagents were included. In this case 50 nl DMSO were used instead of compounds. […] IC50 values were determined by regression analysis based on a 4 parameter equation (minimum, maximum, IC50, Hill; Y=Max+(Min−Max)/(1+(X/IC50)^Hill) using the Screener Software (Genedata).

SUDHL5 cells [1] = test: Induction of caspase-3/7 activity in SUDHL5 cells (Assay 4); format: cell-based
In short: (§4)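 Caspase-3/7 activity measured in DLBCL lines after 3 h compound exposure at 37 °C, following overnight plating; Caspase-Glo 3/7 luminescence read after 1 h at 37 °C. Medium-only background subtracted, values normalized to mean of DMSO-treated cells.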

SUDHL10 cells [2] = test: Induction of caspase-3/7 activity in SUDHL10 cells (Assay 4); format: cell-based
In short: as §4

SUDHL5 cells [3] = test: Induction of cytotoxicity in SUDHL5 cells (Assay 6); format: cell-based; conditions: 5 h, CellTiter-Glo, read-out: Cytotox SUDHL5 IC50 (median)
In short: (§5)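 SUDHL5 and SUDHL10 cells plated and held overnight at 37° C, then incubated 5 h at 37° C with compound. Viability measured by CellTiter-Glo luminescence after 15 min shaking at room temperature. Cell-free medium wells served as control.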

SUDHL10 cells [4] = test: Induction of cytotoxicity in SUDHL10 cells (Assay 6); format: cell-based; conditions: 5 h, CellTiter-Glo, read-out: Cytotox SUDHL10 IC50 (median)
In short: as §5

SUDHL5 cells [5] = test: Antiproliferation assay SUDHL5 (Assay 7); format: cell-based; conditions: 72 h, CellTiter-Glo, read-out: Antiproli SUDHL5 IC50 (median)
In short: (§6)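 Anti-proliferative effect was measured by CellTiter-Glo ATP luminescence after 72 h compound exposure at 37° C, following overnight plating. IC50s were derived using a parallel time-zero plate and DMSO-treated controls as reference points.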

AMO-1 cells = test: Antiproliferation assay AMO-1 (Assay 7); format: cell-based
In short: as §6

HMC-1-8 cells = test: Antiproliferation assay HMC-1-8 (Assay 7); format: cell-based
In short: as §6

BCL-XL = BCL-XL (Homo sapiens (Human), UniProt Q07817); test: Protein-protein interaction assay BCL-XL/Bad BH3 peptide (BCL-XL assay, TR-FRET); format: binding; conditions: read-out: BCL-XL Assay IC50 (median)
Procedure: Assay 2 Protein-Protein Interaction Assay: BCL-XL/Bad BH3 Peptide (BCL-XL Assay)
The dose-dependent inhibition by the compounds described in this invention of the interaction between BCL-XL and the BH3 domain of Bad (both human) was determined using a steady state binding competition assay with time-resolved fluorescence energy transfer (TR-FRET) readout. For that purpose BCL-XL (amino acids 1-212, C-terminal fused to a hexahistidine (6×His) tag (SEQ ID 3) and a synthetic Bad BH3-derived peptide of sequence Biotin-PEG2-PEG2-[…]-Nle-[…]-amide (SEQ ID 4) served as protein receptor and tracer ligand respectively. The recombinant BCL-XL protein (expressed in E. coli) was purchased from BPS Bioscience (San Diego, Calif., USA). The Bad BH3-derived peptide can be obtained from e.g. Biosyntan (Berlin, Germany).
as §1, with “In the assay 11 different concentrations of each compound (0.1 nM, 0.33 nM, 1.1 nM, 3.8 nM, 13 nM, 44 nM, 0.15 μM, 0.51 μM, 1.7 μM, 5.9 μM and 20 μM) were typically measured as duplicates in the same microtiter plate. For” for “For”, “His-BCL-XL” for “MBP-MCL-1”, “compounds. After that, 3 μL of a 1.67-fold concentrated solution (in assay buffer) consisting of Bad BH3-derived peptide (1 nM end concentration) and TR-FRET detection reagents [1.67 nM anti-His-Eu cryptate and 1.67 nM streptavidin-XL665 (both from Cisbio Bioassays, Codolet, France)], were added.” for “compounds.”
as §2, with “The mixture was incubated in the dark for one hour at 22° C. and then overnight at 4° C. The formation of BCL-XL/Bad complexes was determined by measuring the resonance energy transfer of the anti-His- Eu-cryptate antibody to the streptavidin-XL665 present in the reaction. For” for “For”, “BCL-XL/Bad” for “MCL-1/NOXA”
as §3

[6] = Homo sapiens, SU-DHL-5, 3 h, caspase-3/7 induction, 3 h; read-out: Caspase SUDHL5 EC50 (median)
[7] = Homo sapiens, SU-DHL10, 3 h, caspase-3/7 induction, 3 h; read-out: Caspase SUDHL10 EC50 (median)
[8] = caspase-3/7 induction, 3 h; read-out: Caspase SUDHL5 EC50 (median)
[9] = caspase-3/7 induction, 3 h; read-out: Caspase SUDHL10 EC50 (median)
[10] = read-out: Caspase SUDHL5 EC50 (median); caspase-3/7 induction, 3 h
[11] = read-out: Caspase SUDHL10 EC50 (median); caspase-3/7 induction, 3 h
[12] = read-out: Antiproli HMC-1-8 IC50 median; 72 h, CellTiter-Glo

Chain of MCL-1 (Q07820 whole entry, looked up, stated change not applied, the tested form may be a part): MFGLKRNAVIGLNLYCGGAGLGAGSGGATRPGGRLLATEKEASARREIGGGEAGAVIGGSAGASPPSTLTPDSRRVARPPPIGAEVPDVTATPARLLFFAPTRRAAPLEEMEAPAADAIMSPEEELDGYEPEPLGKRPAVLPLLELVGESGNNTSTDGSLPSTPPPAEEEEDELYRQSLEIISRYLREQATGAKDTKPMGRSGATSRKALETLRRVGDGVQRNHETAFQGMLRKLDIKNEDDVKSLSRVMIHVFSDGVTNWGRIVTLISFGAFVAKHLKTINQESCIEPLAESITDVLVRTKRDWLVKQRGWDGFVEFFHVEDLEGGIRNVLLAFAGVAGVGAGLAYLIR
Chain of BCL-XL (Q07817 1-212): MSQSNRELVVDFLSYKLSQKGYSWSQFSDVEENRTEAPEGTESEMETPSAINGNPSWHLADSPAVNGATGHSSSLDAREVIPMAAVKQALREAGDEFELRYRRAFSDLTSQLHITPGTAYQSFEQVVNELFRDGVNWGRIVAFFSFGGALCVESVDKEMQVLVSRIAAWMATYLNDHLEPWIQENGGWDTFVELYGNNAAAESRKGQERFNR

Row | Structure (SMILES) | IC50 (MCL-1) [nM] | EC50 (SUDHL5 cells [1]; [6]) [nM] | EC50 (SUDHL10 cells [2]; [7]) [nM] | IC50 (SUDHL5 cells [3]; Homo sapiens, SU-DHL-5, 5 h) [nM] | IC50 (SUDHL10 cells [4]; Homo sapiens, SU-DHL10, 5 h) [nM] | IC50 (SUDHL5 cells [5]; Homo sapiens, SU-DHL-5, 72 h) [nM] | EC50 (SUDHL5 cells [1]; [8]) [nM] | EC50 (SUDHL10 cells [2]; [9]) [nM] | IC50 (SUDHL5 cells [3]) [nM] | IC50 (SUDHL10 cells [4]) [nM] | IC50 (SUDHL5 cells [5]) [nM] | IC50 (BCL-XL) [nM] | EC50 (SUDHL5 cells [1]; [10]) [nM] | EC50 (SUDHL10 cells [2]; [11]) [nM] | IC50 (HMC-1-8 cells; [12]) [nM] | other results
1 | CCc1c2c(nn1C)C(CCN(C)OC)OCCCCn1c(C(=O)O)c(CCCOc3cccc4cc(F)ccc34)c3ccc(Cl)c-2c31 (racemic) [Example 80, (rac)-4-chloro-3-ethyl-7-{3-[(6-fluoronaphthalen-1-yl)oxy]propyl}-(15-rac)-{2-[methoxy(methyl)amino]ethyl}-2-methyl-2,10,11,12,13,15-hexahydropyrazolo[4′,3′:9,10][1,6]oxazacycloundecino[8,7,6-hi]indole-8-carboxylic Acid] | 3.5 | 140 | 130 | 150 | 250 | 170 | – | – | – | – | – | – | – | – | – | IC50 (AMO-1 cells; Homo sapiens, AMO1, 72 h, 72 h, CellTiter-Glo; read-out: Antiproli AMO-1 IC50 median): 47.4 nM; IC50 (HMC-1-8 cells; 72 h, CellTiter-Glo, read-out: Antiproli HMC-1-8 IC50 median): 1590 nM
2 | CCc1c2c(nn1C)C1CCCN1CCCCn1c(C(=O)O)c(CCCOc3cccc4cc(F)ccc34)c3ccc(Cl)c-2c31 (racemic) [Example 107, (rac)-17-chloro-1-ethyl-14-{3-[(6-fluoronaphthalen-1-yl)oxy]propyl}-2-methyl-3b,4,5,6,8,9,10,11-octahydro-2H-pyrazolo[3′,4′:8,9]pyrrolo[1′,2′:6,7][1,6]diazacycloundecino[10,11,1-hi]indole-13-carboxylic Acid] | 1.1 | – | – | – | – | – | 540 | 1200 | 690 | 890 | 1100 | – | – | – | – | IC50 (AMO-1 cells; 72 h, CellTiter-Glo; read-out: Antiproli AMO-1 IC50 median): 1340 nM; IC50 (HMC-1-8 cells; 72 h, CellTiter-Glo; read-out: Antiproli HMC-1-8 IC50 median): 6640 nM
3 | Cc1c2c(nn1C)C(CCN1CCOCC1)OCCCCn1c(C(=O)O)c(CCCOc3cccc4ccccc34)c3cccc-2c31 (single isomer, unassigned; stereoisomer 1) [Example 5, 2,3-dimethyl-15-[2-(morpholin-4-yl)ethyl]-7-[3-(naphthalen-1-yloxy)propyl]-2,10,11,12,13,15-hexahydropyrazolo[4′,3′:9,10][1,6]oxazacycloundecino[8,7,6-hi]indole-8-carboxylic Acid (Stereoisomer 1)] | 1.2 | – | – | – | – | – | 300 | 520 | 340 | 490 | 440 | – | – | – | – | –
4 | CCc1c2c(nn1C)C(C1CC1)OCCCCn1c(C(=O)O)c(CCCOc3cccc4cc(F)ccc34)c3ccc(Cl)c-2c31 (single isomer, unassigned; enantiomer 2) [Example 40, (−)-4-chloro-15-cyclopropyl-3-ethyl-7-{3-[(6-fluoronaphthalen-1-yl)oxy]propyl}-2-methyl-2,10,11,12,13,15-hexahydropyrazolo[4′,3′:9,10][1,6]oxazacycloundecino[8,7,6-hi]indole-8-carboxylic Acid—N-ethylethanamine Salt (Enantiomer 2)] | – | – | – | – | – | – | – | – | 20000 | 29000 | – | > 20000 | > 33000 | 25000 | 23200 | –
5 | CCc1c2c(nn1C)C(C(F)(F)F)OCCCCn1c(C(=O)O)c(CCCOc3cccc4ccccc34)c3ccc(Cl)c-2c31 (single isomer, unassigned; enantiomer 2) [Example 34, (−)-4-chloro-3-ethyl-2-methyl-7-{3-[(naphthalen-1-yl)oxy]propyl}-15-(trifluoromethyl)-2,10,11,12,13,15-hexahydropyrazolo[4′,3′:9,10][1,6]oxazacycloundecino[8,7,6-hi]indole-8-carboxylic Acid—N-ethylethanamine Salt (Enantiomer 2)] | – | – | – | – | – | – | – | – | 7100 | 26000 | – | > 20000 | > 33000 | > 33000 | 20700 | IC50 (AMO-1 cells; read-out: Antiproli AMO-1 IC50 median; 72 h, CellTiter-Glo): 30900 nM
6 | Cc1c2c(nn1C)C(CCN1CCOCC1)OCCCCn1c(C(=O)O)c(CCCOc3cccc4ccccc34)c3cccc-2c31 (racemic) [Example 4, (rac)-2,3-dimethyl-15-[2-(morpholin-4-yl)ethyl]-7-[3-(naphthalen-1-yloxy)propyl]-2,10,11,12,13,15-hexahydropyrazolo[4′,3′:9,10][1,6]oxazacycloundecino[8,7,6-hi]indole-8-carboxylic Acid (Mixture of Stereoisomers)] | 1.1 | 520 | 990 | 550 | 1100 | 500 | – | – | – | – | – | – | – | – | – | –
